In PubChem BioAssay (NCI):
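Growth conditions: 96-well plates. Treatment: test compound, 48 hours, 5 concentrations. Analysis: linear interpolation between bracketing concentrations; unreached endpoints set to highest concentration. TGI marks complete inhibition of growth.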

Legend:
Assay in all cases: DTP human tumour cell line panel, 48 h
BT-549 breast = system: BT-549 breast
CAKI-1 renal = system: CAKI-1 renal
EKVX NSCLC = system: EKVX NSCLC
HL-60(TB) leukemia = system: HL-60(TB) leukemia
HOP-92 NSCLC = system: HOP-92 NSCLC
IGROV1 ovarian = system: IGROV1 ovarian
KM12 colon = system: KM12 colon
M14 melanoma = system: M14 melanoma
MDA-MB-231 breast = system: MDA-MB-231 breast
NCI-H226 lung = system: NCI-H226 lung
RXF 393 renal = system: RXF 393 renal
SK-MEL-2 melanoma = system: SK-MEL-2 melanoma
SK-MEL-28 melanoma = system: SK-MEL-28 melanoma
SN12C renal = system: SN12C renal
T-47D breast = system: T-47D breast
TK-10 renal = system: TK-10 renal

SMILES	TGI (BT-549 breast) [µM]	TGI (CAKI-1 renal) [µM]	TGI (EKVX NSCLC) [µM]	TGI (HL-60(TB) leukemia) [µM]	TGI (HOP-92 NSCLC) [µM]	TGI (IGROV1 ovarian) [µM]	TGI (KM12 colon) [µM]	TGI (M14 melanoma) [µM]	TGI (MDA-MB-231 breast) [µM]	TGI (NCI-H226 lung) [µM]	TGI (RXF 393 renal) [µM]	TGI (SK-MEL-2 melanoma) [µM]	TGI (SK-MEL-28 melanoma) [µM]	TGI (SN12C renal) [µM]	TGI (T-47D breast) [µM]	TGI (TK-10 renal) [µM]
COc1ccc(/C=C2\N=C(N3CCCCC3)NC2=O)cc1	> 100	> 100	> 100	> 100	> 100	> 100	> 100	> 100	> 100	> 100	> 100	> 100	> 100	> 100	> 100	> 100
CC1(C)N/C(=C\[N+](=O)[O-])C(C)(C)N1O	> 10	> 10	> 10	> 10	> 10	> 10	> 10	> 10	> 10	> 10	> 10	> 10	> 10	> 10	> 10	> 10
COC(=O)C1=C(OC(=O)/C(=C/c2ccccc2)c2ccc(Cl)cc2Cl)C(C(=O)OC)[C@@]2(O)[C@@H](C(=O)OC)[C@H](C)C[C@@H]1[C@@H]2C(=O)OC (some centres not stated)	> 100	> 100	> 100	> 100	> 100	> 100	> 100	> 100	> 100	> 100	> 100	> 100	> 100	> 100	> 100	> 100
CS(=O)(=O)C(C#N)c1nc2ccccc2nc1Cl (configuration not stated)	> 100	> 100	> 100	> 100	> 100	> 100	> 58.2	> 100	> 100	> 100	> 100	> 100	> 100	> 100	> 100	> 66.5
CCOC(=O)c1ccc(N=C/C=C(\Nc2ccc(C(=O)OCC)cc2)C23CC4CC(CC(C4)C2)C3)cc1	> 100	> 100	> 100	> 100	> 100	> 100	> 100	> 100	> 100	> 100	> 100	> 100	> 100	> 100	> 100	> 100
COc1ccc(Cn2c3c(cc(OC(C)=O)c2=O)Cc2ccccc2-3)cc1	35.1	35.7	28.3	20.6	34.1	20.3	35.9	17.9	> 50	41.1	42.6	23.9	> 50	20.8	> 50	34
COC1(OC)N=C(N)C2(C#N)C(c3ccccc3)NC3=C(CCC3)C12C#N (configuration not stated)	> 100	> 100	> 100	> 100	> 100	> 100	> 100	> 100	> 100	> 100	> 100	> 100	> 100	> 100	> 100	> 100
C#CCn1c(=O)c(I)cn(/C(=C/C(=O)OCC)C(=O)OCC)c1=O	26.2	3.38	10.2	3.89	3.37	38.3	34.8	3.61	29.5	47.7	12.2	33	26.2	32.3	2.28	1.67
Cc1cc(C)nc(NS(=O)(=O)c2ccc(Nc3c4ccccc4nc4ccc(C(=O)Nc5ccc(S(N)(=O)=O)cc5)cc34)cc2)n1	73.5	> 100	> 100	> 100	> 100	> 100	> 100	> 100	52.6	> 100	> 100	> 100	> 100	> 100	> 100	> 100
COc1ccc2c(c1)CN1C(=N2)CSC1c1cccc(Br)c1 (configuration not stated)	> 100	> 100	> 100	22.3	> 100	> 100	> 100	> 100	> 100	61.2	55.9	> 100	> 100	62.6	> 100	> 100
OC(CNc1ccccn1)c1ccccc1 (configuration not stated)	> 100	> 100	> 100	> 100	> 100	> 100	> 100	> 100	> 100	> 100	> 100	> 100	> 100	> 100	> 100	> 100
COC(=O)c1csc([C@@H](OC(=O)[C@H](C)[C@H](CCCC(C)(Cl)Cl)OC(=O)c2csc([C@H](O)CO)n2)C(C)C)n1	31	32.7	33.4	35.1	23	24.1	29.4	31.6	36.1	39.7	4.53	28.9	24.2	4.41	36.5	24.9
